Data as given in US6737383B1, “Herbicidal oxadiazolidines” (priority 1999, dated 2004).

Assays:
[1] = system: velvetleaf; assay: Test B pre/postemergence velvetleaf; format: in vivo, Abutilon theophrasti; conditions: for Velvetleaf plant response rating: scale of 0 to 10 where 0 is no effect and 10 is complete control
Summary of the method: (§1)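 Herbicidal effect was estimated by eye on a ten-point control scale after plants spent twelve to sixteen days in a greenhouse following soil or foliar treatment. Foliar sprays targeted plants at one to four leaves; all doses were formulated in a non-phytotoxic solvent with surfactant.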

[2] = system: crabgrass; assay: Test B pre/postemergence crabgrass; format: in vivo, Digitaria sanguinalis; conditions: for Crabgrass plant response rating: scale of 0 to 10 where 0 is no effect and 10 is complete control
Summary of the method: as §1

[3] = system: wheat; assay: Test B pre/postemergence wheat; format: in vivo, Triticum aestivum; conditions: for Wheat plant response rating: scale of 0 to 10 where 0 is no effect and 10 is complete control
Summary of the method: as §1

[4] = system: corn; assay: Test B pre/postemergence corn; format: in vivo, Zea mays; conditions: for Corn plant response rating: scale of 0 to 10 where 0 is no effect and 10 is complete control
Summary of the method: as §1

[5] = system: rape; assay: Test B pre/postemergence rape; format: in vivo, Brassica napus; conditions: for Rape plant response rating: scale of 0 to 10 where 0 is no effect and 10 is complete control
Summary of the method: as §1

[6] = system: pigweed; assay: Test B pre/postemergence pigweed; format: in vivo, Amaranthus retroflexus; conditions: for Redroot pigweed plant response rating: scale of 0 to 10 where 0 is no effect and 10 is complete control
Summary of the method: as §1

[7] = system: purple nutsedge; assay: Test B pre/postemergence purple nutsedge; format: in vivo, Cyperus rotundus; conditions: for Nutsedge plant response rating: scale of 0 to 10 where 0 is no effect and 10 is complete control
Summary of the method: as §1

[8] = system: sugar beet; assay: Test B pre/postemergence sugar beet; format: in vivo, Beta vulgaris; conditions: for Sugarbeets plant response rating: scale of 0 to 10 where 0 is no effect and 10 is complete control
Summary of the method: as §1

[9] = system: surinam grass; assay: Test B pre/postemergence surinam grass; format: in vivo, Brachiaria decumbens
Summary of the method: as §1

[10] = system: wild oat; assay: Test B pre/postemergence wild oat; format: in vivo, Avena fatua; conditions: for Wild oats plant response rating: scale of 0 to 10 where 0 is no effect and 10 is complete control
Summary of the method: as §1

[11] = system: blackgrass; assay: Test B pre/postemergence blackgrass; format: in vivo, Alopecurus myosuroides
Summary of the method: as §1

[12] = system: bedstraw; assay: Test B pre/postemergence bedstraw; format: in vivo, Galium aparine; conditions: for Plant response rating, Bedstraw: Postemergence
Summary of the method: as §1

[13] = system: smallflower flatsedge; assay: Test B flood test smallflower flatsedge; format: in vivo, Cyperus difformis
Summary of the method: (§2)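 Plants were grown to the 2-leaf stage before treatment with test chemical, then held in a greenhouse for twelve to sixteen days. Injury was visually rated against untreated controls on a 0–10 scale, where 0 is no effect and 10 is complete control.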

[14] = system: duck salad; assay: Test B flood test duck salad; format: in vivo, Heteranthera limosa
Summary of the method: as §2

[15] = system: rice; assay: Test B flood test rice; format: in vivo, Oryza sativa
Summary of the method: as §2

[16] = system: soybean; assay: Test B pre/postemergence soybean; format: in vivo, Glycine max; conditions: for Soybean plant response rating: scale of 0 to 10 where 0 is no effect and 10 is complete control
Summary of the method: as §1

[17] = Postemergence, Rate 125 g/ha, scale 0 to 10, 0 is no effect, 10 is complete control
[18] = Preemergence, Rate 62 g/ha, scale 0 to 10 (0 no effect, 10 complete control)
[19] = Rate 500 g/ha, Postemergence, scale 0 to 10, 0 no effect, 10 complete control
[20] = Preemergence, Rate 250 g/ha, scale of 0 to 10 where 0 is no effect and 10 is complete control
[21] = Preemergence, Rate 500 g/ha, scale of 0 to 10 where 0 is no effect and 10 is complete control
[22] = Rate 62 g/ha, Postemergence, scale of 0 to 10 where 0 is no effect and 10 is complete control
[23] = Rate 250 g/ha, Postemergence, scale of 0 to 10 where 0 is no effect and 10 is complete control
[24] = Postemergence (flood test), Rate 125 g/ha, scale 0 to 10, 0 is no effect, 10 is complete control
[25] = Rate 62 g/ha, Postemergence (flood test species), scale of 0 to 10 where 0 is no effect and 10 is complete control
[26] = Rate 500 g/ha, listed under Postemergence (flood test species), scale 0 to 10, 0 no effect, 10 complete control

CC(C)N(C(=O)n1oc(=O)n(C2CCC2)c1=O)c1ccccc1 [Compound 348]
1: Crabgrass plant response rating ([2]; Rate 62 g/ha, Postemergence) | Plant response rating, B. signalgrass [9, 17] | Soybean plant response rating ([16]; Rate 62 g/ha, Postemergence)
10: Crabgrass plant response rating ([2]; Preemergence, Rate 250 g/ha) | Crabgrass plant response rating ([2]; Preemergence, Rate 500 g/ha) | Redroot pigweed plant response rating ([6]; Preemergence, Rate 250 g/ha) | Redroot pigweed plant response rating ([6]; Preemergence, Rate 500 g/ha) | Wild oats plant response rating ([10]; Preemergence, Rate 500 g/ha)
5: Plant response rating, Rape [5, 19] | Plant response rating, Redroot pigweed [6, 19] | B. signalgrass plant response rating [9, 20]
9: Corn plant response rating ([4]; Preemergence, Rate 500 g/ha) | Blackgrass plant response rating [11, 20] | Blackgrass plant response rating [11, 21] | Bedstraw plant response rating [12, 21]
4: Plant response rating, Wheat [3, 19] | Plant response rating, B. signalgrass [9, 23] | Wild oats plant response rating (0 to 10 scale) ([10]; Preemergence, Rate 125 g/ha) | Plant response rating, Blackgrass [11, 18] | Plant response rating, Bedstraw ([12]; Rate 250 g/ha, scale of 0 to 10 where 0 is no effect and 10 is complete control) | S. Flatsedge plant response rating [13, 25] | Plant response rating, Ducksalad [14, 26] | Plant response rating, Soybean [16, 19]
8: Wild oats plant response rating ([10]; Preemergence, Rate 250 g/ha)
0: Plant response rating, Wheat [3, 18] | Wheat plant response rating (0 to 10 scale) ([3]; Preemergence, Rate 125 g/ha) | Wheat plant response rating ([3]; Preemergence, Rate 250 g/ha) | Wheat plant response rating ([3]; Preemergence, Rate 500 g/ha) | Plant response rating, Corn [4, 17] | Plant response rating, Corn [4, 18] | Corn plant response rating ([4]; Rate 62 g/ha, Postemergence) | Plant response rating, Rape [5, 17] | Plant response rating, Rape [5, 18] | Rape plant response rating (0 to 10 scale) ([5]; Preemergence, Rate 125 g/ha) | Rape plant response rating ([5]; Rate 62 g/ha, Postemergence) | Plant response rating, Redroot pigweed [6, 17] | Plant response rating, Redroot pigweed [6, 18] | Redroot pigweed plant response rating (0 to 10 scale) ([6]; Preemergence, Rate 125 g/ha) | Redroot pigweed plant response rating ([6]; Rate 62 g/ha, Postemergence) | Plant response rating, Nutsedge [7, 17] | Plant response rating, Nutsedge [7, 18] | Nutsedge plant response rating (0 to 10 scale) ([7]; Preemergence, Rate 125 g/ha) | Nutsedge plant response rating ([7]; Preemergence, Rate 250 g/ha) | Nutsedge plant response rating ([7]; Preemergence, Rate 500 g/ha) | Nutsedge plant response rating ([7]; Rate 62 g/ha, Postemergence) | Plant response rating, Sugarbeets [8, 17] | Plant response rating, Sugarbeets [8, 18] | Sugarbeets plant response rating (0 to 10 scale) ([8]; Preemergence, Rate 125 g/ha) | Sugarbeets plant response rating ([8]; Rate 62 g/ha, Postemergence) | B. signalgrass plant response rating [9, 22] | Ducksalad plant response rating [14, 25] | Plant response rating, Rice [15, 24] | Rice plant response rating [15, 25] | Plant response rating, Rice [15, 26] | Plant response rating, Soybean [16, 18] | Soybean plant response rating (0 to 10 scale) ([16]; Preemergence, Rate 125 g/ha) | Soybean plant response rating ([16]; Preemergence, Rate 250 g/ha) | Soybean plant response rating ([16]; Preemergence, Rate 500 g/ha)
2: Plant response rating, Velvetleaf [1, 17] | Velvetleaf plant response rating ([1]; Rate 62 g/ha, Postemergence) | Plant response rating, Crabgrass [2, 17] | Wheat plant response rating ([3]; Rate 62 g/ha, Postemergence) | Corn plant response rating (0 to 10 scale) ([4]; Preemergence, Rate 125 g/ha) | Corn plant response rating ([4]; Preemergence, Rate 250 g/ha) | Rape plant response rating ([5]; Preemergence, Rate 250 g/ha) | Wild oats plant response rating ([10]; Rate 62 g/ha, Postemergence) | Blackgrass plant response rating [11, 22] | Plant response rating, Bedstraw ([12]; Rate 125 g/ha, scale 0 to 10, 0 is no effect, 10 is complete control) | Plant response rating, Soybean [16, 17]
7: Velvetleaf plant response rating ([1]; Preemergence, Rate 250 g/ha) | Velvetleaf plant response rating ([1]; Preemergence, Rate 500 g/ha) | Plant response rating, Crabgrass [2, 18] | Crabgrass plant response rating (0 to 10 scale) ([2]; Preemergence, Rate 125 g/ha) | Rape plant response rating ([5]; Preemergence, Rate 500 g/ha) | B. signalgrass plant response rating [9, 21] | Plant response rating, B. signalgrass [9, 19] | Plant response rating, Wild oats [10, 19] | Plant response rating, Blackgrass [11, 19] | Plant response rating, Bedstraw ([12]; Rate 500 g/ha, scale 0 to 10, 0 no effect, 10 complete control) | Plant response rating, S. Flatsedge [13, 26]
6: Plant response rating, Velvetleaf [1, 19] | Plant response rating, Crabgrass [2, 19] | Plant response rating, Nutsedge [7, 19] | Sugarbeets plant response rating ([8]; Preemergence, Rate 500 g/ha) | Blackgrass plant response rating (0 to 10 scale) ([11]; Preemergence, Rate 125 g/ha) | Plant response rating, Blackgrass [11, 23] | Plant response rating, S. Flatsedge [13, 24]
3: Plant response rating, Velvetleaf [1, 18] | Velvetleaf plant response rating (0 to 10 scale) ([1]; Preemergence, Rate 125 g/ha) | Plant response rating, Wheat [3, 17] | Plant response rating, Corn [4, 19] | Sugarbeets plant response rating ([8]; Preemergence, Rate 250 g/ha) | Plant response rating, Sugarbeets [8, 19] | B. signalgrass plant response rating (0 to 10 scale, 0 is no effect, 10 is complete control) ([9]; Preemergence, Rate 125 g/ha) | Plant response rating, Wild oats [10, 17] | Plant response rating, Wild oats [10, 18] | Plant response rating, Blackgrass [11, 17] | Plant response rating, Ducksalad [14, 24]
